# Measured values: the RepoRT retention time repository
# Experiment: HILIC, Waters ACQUITY UPLC BEH Amide, 100 × 2.1 mm, 1.7 µm; A: water + 0.125% formic acid + 10 mM ammonium formate; B: 5% water + 95% acetonitrile + 0.125% formic acid + 10 mM ammonium formate; gradient (min/%B) 0/100 2/100 7.7/70 9.5/40 10.25/30 12.75/100 17/100
# Settings: stereoisomer not certain
row,SMILES,LC retention time [min]
1,O=[N+]([O-])c1cc[n+]([O-])c2ccccc12 [4-Nitroquinoline-N-oxide],1.14
2,CN(CC=CC#CC(C)(C)C)Cc1cccc2ccccc12 [Terbinafine],1.33
3,O=C(C=Cc1ccccc1O)c1ccccc1 [2-Hydroxychalcone],1.01
4,CC(N)C(=O)NC(C(=O)O)C(C)C (centres undefined) [Ala-Val],7.66
5,CN1CCN(C2=Nc3ccccc3Oc3ccc(Cl)cc32)CC1 [Loxapine],2.18
6,CN(C)CCOc1ccc(C(=C(CCCl)c2ccccc2)c2ccccc2)cc1 [Toremifene],1.89
7,CC12CCC3C(CC=C4CC(O)CCC43C)C1CCC2=O (centres undefined) [Dehydroepiandrosterone],1.03
8,CC(O)C(NC(=O)C(N)CCC(=O)O)C(=O)O (centres undefined) [Glu-Thr],9.44
9,NC(CSSCC(N)C(=O)O)C(=O)O (centres undefined) [Cystine],9.97
10,COc1ccc(CCN)cc1OC [Homoveratrylamine],4.78
11,NCCCCCN [Cadaverine],8.99
12,COc1cc(N)c(Cl)cc1C(=O)NC1CN2CCC1CC2 (centres undefined) [Zacopride],4.66
13,COc1ccc2c(c1)C13CCCCC1C(C2)N(C)CC3 (centres undefined) [Dextromethorphan],2.64
14,CCC(C)C(NC(=O)CN)C(=O)O (centres undefined) [Gly-Ile],7.67
15,O=c1n(CCCN2CCN(c3cccc(Cl)c3)CC2)nc2ccccn12 [Trazodone],2.38
16,CN1CCc2cc(Cl)c(O)cc2C(c2ccccc2)C1 (centres undefined) [UNII-UGT5535REQ],2.89
17,CN(C)CCC=C1c2ccccc2COc2ccccc21 [Doxepin],2.26
18,CC(C)NCC(O)COc1ccc(COCCOC(C)C)cc1 (centres undefined) [Bisoprolol],3.47
19,CN=C(NC)NCCCC(N)C(=O)O (centres undefined) [SDMA],8.49
20,COC(=O)N1CCN(C(=O)Cc2ccc(Cl)c(Cl)c2)C(CN2CCCC2)C1 (centres undefined),2.56

row,SMILES,LC retention time [min]
1,NC1CCCCC1 [Cyclohexanamine],5.1
2,CC(C)C(NC(=O)CN)C(=O)O (centres undefined) [Gly-val],8.05
3,CC(C)(N)Cc1ccccc1 [Phentermine],6.23
4,CCC(C)C(NC)C(=O)O (centres undefined) [N-Methylisoleucine],6.44
5,c1ccc(-c2ccc(C(c3ccccc3)n3ccnc3)cc2)cc1 (centres undefined) [Bifonazole],1.19
6,c1ccc2c(c1)Cc1ccccc1-2 [Fluorene],6.66
7,Cc1ccc(NC(=O)c2ccc(CN3CCN(C)CC3)cc2)cc1Nc1nccc(-c2cccnc2)n1 [Imatinib],5.36
8,CCCN1CC(CSC)CC2c3cccc4[nH]cc(c34)CC21 (centres undefined) [Pergolide],2.41
9,CN1C(CC(=O)c2ccccc2)CCCC1CC(O)c1ccccc1 (centres undefined) [Lobeline A],2.02
10,NC(CC(=O)O)C(=O)NC(CCC(=O)O)C(=O)O (centres undefined) [Asp-Glu],9.47
11,CC(=O)NC(CC(=O)O)C(=O)NC(CCC(=O)O)C(=O)O (centres undefined) [N-Acetyl-Asp-Glu],8.11
12,CCC(C(N)=O)N1CCCC1=O (centres undefined) [Levetiracetam],1.45
13,NC(N)=NCCCC(N)C(=O)NC(CO)C(=O)O (centres undefined) [Arg-Ser],9.9
14,CC(C)CC(NC(=O)C(C)N)C(=O)O (centres undefined) [Ala-Leu],7.6
15,O=CCC(O)C(O)CO (centres undefined) [2-Deoxyribose],1.42
16,Cc1cc2c(s1)Nc1ccccc1N=C2N1CCN(C)CC1 [Olanzapine],4.56
17,CC(=O)OCC=C(C)CCC=C(C)C [Nerylacetate],0.99
18,C=CCC1(C(C)C#CCC)C(=O)NC(=O)N(C)C1=O (centres undefined) [Methohexital],6.9
19,CCC1(O)CC2CN(CCc3c([nH]c4ccccc34)C(C(=O)OC)(c3cc4c(cc3OC)N(C=O)C3C(O)(C(=O)OC)C(OC(C)=O)C5(CC)C=CCN6CCC43C65)C2)C1 (centres undefined) [Vincristine],3.7
20,CC(C)=CC(=O)NCC(=O)O [3-Methylcrotonylglycine],2.95

# Other lines, results leading:
row,LC retention time [min],SMILES
1,9.26,CC(=O)NC1C(O)CC(O)(C(=O)O)OC1C(O)C(O)CO (centres undefined) [N-Acetylneuraminic acid]
2,1,C#CC1(O)CCC2C3C(C)CC4=C(CCC(=O)C4)C3CCC21C (centres undefined) [Tibolone]
3,4.65,CN1CCN(c2c(F)cc3c(=O)c(C(=O)O)cn4c3c2SCC4)CC1 [Rufloxacin]
4,1.69,CCCCC(=O)N(Cc1ccc(-c2ccccc2-c2nn[nH]n2)cc1)C(C(=O)O)C(C)C (centres undefined) [Valsartan]
5,6.4,CNc1nc2c(ncn2C2OC(CO)C(O)C2O)c(=O)[nH]1 (centres undefined) [N2-Methylguanosine]
6,5.11,Nc1ncnc2c1[nH]c(=O)n2C1CC(O)C(CO)O1 (centres undefined) [8-Oxo-2-deoxyadenosine]
7,8.06,Nc1cc(CC(N)C(=O)O)ccc1O (centres undefined) [3-Aminotyrosine]
8,4.77,Nc1ncnc2c1ncn2C1OC(CO)C(O)C1O (centres undefined) [Adenosine]
9,2.6,Cc1cn(C2OC(CO)CC2O)c(=O)[nH]c1=O (centres undefined) [5-Methyl-3-deoxyuridine]
10,9.1,Cn1cnc(C[C@H](N)C(=O)O)c1 [1-Methyl-L-histidine]
11,6.09,CC1OC(OCC2OC(Oc3c(-c4ccc(O)cc4)oc4cc(O)cc(O)c4c3=O)C(O)C(O)C2O)C(O)C(O)C1O (centres undefined) [Kaempferol-3-O-rutinoside]
12,1.02,COC(=O)C1=C(C)NC(C)=C(C(=O)OC)C1c1ccccc1[N+](=O)[O-] [Nifedipine]
13,1.11,CC(Cc1ccc(C(C)C(=O)O)cc1)C(=O)O (centres undefined) [Carboxyibuprofen]
14,1.18,COc1ccc2[nH]cc(CCO)c2c1 [5-Methoxytryptophol]
15,2.02,"O=C(O)CC1C(=O)Nc2ccccc21 (centres undefined) [(2-oxo-2,3-dihydro-1H-indol-3-yl)acetic acid]"
16,2.95,O=C(O)CNC(=O)C=Cc1ccccc1 [N-Cinnamoylglycine]
17,9.25,Nc1nc2c(ncn2C2CC(O)C(COP(=O)(O)O)O2)c(=O)[nH]1 (centres undefined) [2'-Deoxyguanosine 5'-monophosphate]
18,2.17,CC(C)(C)NC(=O)C1CN(Cc2cccnc2)CCN1CC(O)CC(Cc1ccccc1)C(=O)NC1c2ccccc2CC1O (centres undefined) [Indinavir]
19,2.76,COC1C=COC2(C)Oc3c(C)c(O)c4c(O)c(c5c(c4c3C2=O)=NC2(CCN(CC(C)C)CC2)N=5)NC(=O)C(C)=CC=CC(C)C(O)C(C)C(O)C(C)C(OC(C)=O)C1C (centres undefined) [Rifabutin]
20,2.12,CC1CCN(CCCC(=O)c2ccc(F)cc2)CC1 [Melperone]
21,1.12,COCC1=C(C(=O)OC(C)OC(=O)OC(C)C)N2C(=O)C(NC(=O)C(=NOC)c3csc(N)n3)C2SC1 (centres undefined)
22,0.98,O=C1Nc2ccc(Cl)cc2C(C#CC2CC2)(C(F)(F)F)O1 (centres undefined) [Efavirenz]
23,2.83,Cc1nccn1CC1CCc2c(c3ccccc3n2C)C1=O (centres undefined) [Ondansetron]
24,1.32,Cc1occc(=O)c1O [Maltol]
25,8.71,O=C1CCC(C(=O)O)N1 (centres undefined) [Pyroglutamic acid]

row,LC retention time [min],SMILES
1,1.08,CCOC(=O)c1ncn2c1CN(C)C(=O)c1cc(F)ccc1-2 [Flumazenil]
2,4.49,COc1cc(-c2oc3cc(O)cc(O)c3c(=O)c2OC2OC(CO)C(O)C(O)C2O)ccc1O (centres undefined) [Isorhamnetin-3-glucoside]
3,1.12,CC1CC2C3CC(F)C4=CC(=O)C(Cl)=CC4(C)C3(F)C(O)CC2(C)C1(O)C(=O)CO (centres undefined) [Halometasone]
4,5.04,COc1cc(C(=O)NC2CCCNC2)cc(OC)c1OC (centres undefined) [Troxipide]
5,0.99,CC(=O)CC(c1ccccc1)c1c(O)c2ccccc2oc1=O (centres undefined) [Warfarin]
6,2.53,CNC(CC(=O)O)C(=O)O (centres undefined) [N-Methylaspartic acid]
7,5.8,COC1C(CO)OC(n2cnc3c(=O)[nH]c(N)nc32)C1O (centres undefined) [3'-O-Methylguanosine]
8,6.19,O=c1[nH]cnc2c1ncn2C1OC(CO)C(O)C1O (centres undefined) [Inosine]
9,1.78,O=C1c2c(O)cc(O)cc2OC(c2ccc(O)c(O)c2)C1O (centres undefined) [Taxifolin]
10,1.34,O=C(c1ccccc1)c1c(O)cc(O)cc1O [Phlorobenzophenone]
11,6.49,CC12CCC3c4ccc(O)cc4CCC3C1CC(OC1OC(C(=O)O)C(O)C(O)C1O)C2O (centres undefined) [16-Glucuronide-estriol]
12,1.51,O=C(OC1C(Oc2ccccc2COC(=O)C2(O)C=CCCC2=O)OC(CO)C(O)C1O)c1ccccc1 (centres undefined) [Tremulacin]
13,9.04,NC(CSCC(=O)O)C(=O)O (centres undefined) [Carbocysteine]
14,2.25,O=C(O)C(O)Cc1c[nH]c2ccccc12 (centres undefined) [Indolelactic acid]
15,5.64,C[Si](C)(C)CCC(=O)O [3-Trimethylsilylpropionic acid]
16,8.28,Cc1cn(C2CC(O)C(COP(=O)(O)O)O2)c(=O)[nH]c1=O (centres undefined) [Thymidine 5'-monophosphate]
17,1.38,O=C(O)C=Cc1ccc(O)cc1 [p-Coumaric acid]
18,1.62,Cc1cn(C2C=CC(CO)O2)c(=O)[nH]c1=O (centres undefined) [Stavudine]
19,5.33,Nc1ccn(C2OC(CO)C(O)C2O)c(=S)n1 (centres undefined) [2-Thiocytidine]
20,8.1,Cc1ncc(CO)c(CN)c1O [Pyridoxamine]
21,5.66,O=C(O)c1ccc[nH]1 [Pyrrole-2-carboxylic acid]
22,2.4,CC(=O)N1C(=O)C(=O)c2ccccc21 [Acetylisatin]
23,4.06,COC1C(O)C(CO)OC1n1cnc2c(=O)[nH]cnc21 (centres undefined) [2'-O-Methylinosine]
24,5.62,"CN(C)c1nc2c(ncn2C2OC(CO)C(O)C2O)c(=O)[nH]1 (centres undefined) [N2,N2-Dimethylguanosine]"
